{
  "source": "patent US6043279A",
  "about": "“Compounds having selective activity for retinoid X receptors, and means for modulation of processes mediated by retinoid X receptors” (priority 1997, dated 2000)",
  "key": {"RXRα/PPAR": {"molecular_target": "T1, RXRα/PPAR (UniProt P19793+P23204)", "T1 construct": "expressed in transfected cells; host or cells: HepG2", "T1 sequence (P23204 whole entry)": "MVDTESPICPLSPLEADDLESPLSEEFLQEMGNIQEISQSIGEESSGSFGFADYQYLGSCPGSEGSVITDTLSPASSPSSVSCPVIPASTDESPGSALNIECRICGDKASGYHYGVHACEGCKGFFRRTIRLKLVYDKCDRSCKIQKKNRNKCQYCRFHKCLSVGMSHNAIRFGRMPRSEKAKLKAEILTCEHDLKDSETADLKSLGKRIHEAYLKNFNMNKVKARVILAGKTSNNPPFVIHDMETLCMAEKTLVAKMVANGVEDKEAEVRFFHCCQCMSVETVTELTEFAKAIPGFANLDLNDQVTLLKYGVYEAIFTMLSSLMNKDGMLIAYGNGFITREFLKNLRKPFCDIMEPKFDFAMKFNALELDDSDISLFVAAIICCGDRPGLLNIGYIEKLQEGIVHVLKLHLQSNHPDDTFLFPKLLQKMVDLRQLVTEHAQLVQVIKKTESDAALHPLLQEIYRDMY", "T1 sequence (P19793 whole entry)": "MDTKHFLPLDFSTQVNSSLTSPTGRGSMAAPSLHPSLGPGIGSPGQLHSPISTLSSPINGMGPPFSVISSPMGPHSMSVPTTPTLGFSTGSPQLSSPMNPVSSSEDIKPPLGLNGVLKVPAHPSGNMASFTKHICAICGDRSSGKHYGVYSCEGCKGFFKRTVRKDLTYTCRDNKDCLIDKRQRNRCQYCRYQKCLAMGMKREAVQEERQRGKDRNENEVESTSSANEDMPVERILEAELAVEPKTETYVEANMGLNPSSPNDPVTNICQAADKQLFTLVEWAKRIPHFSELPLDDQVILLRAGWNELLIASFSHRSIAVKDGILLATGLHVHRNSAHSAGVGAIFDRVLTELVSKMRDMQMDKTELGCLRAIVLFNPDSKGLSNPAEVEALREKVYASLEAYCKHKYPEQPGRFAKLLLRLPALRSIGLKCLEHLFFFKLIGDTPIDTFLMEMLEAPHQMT", "assay": "co-transfection of RXRα and PPAR into HepG2 cells, target reporter gene", "type": "cell-based", "conditions": "HepG2, read-out: Normalized Response (%)", "from_the_text": "Specifically, peroxisome proliferator-activated receptor (PPAR) is a member of the intracellular receptor super family that plays a role in the modulation of lipid homeostasis. […] These agents, called peroxisome proliferators, have been used in man as hypolipidemic agents."}, "HL60": {"tested_on": "HL60", "assay": "thymidine incorporation assay in HL60 cells", "type": "cell-based"}, "RXRβ": {"molecular_target": "T2, RXRβ (Mus musculus, UniProt P28704)", "T2 construct": "expressed in transfected cells; host or cells: CV-1 (monkey kidney)", "T2 sequence (P28704 1-520)": "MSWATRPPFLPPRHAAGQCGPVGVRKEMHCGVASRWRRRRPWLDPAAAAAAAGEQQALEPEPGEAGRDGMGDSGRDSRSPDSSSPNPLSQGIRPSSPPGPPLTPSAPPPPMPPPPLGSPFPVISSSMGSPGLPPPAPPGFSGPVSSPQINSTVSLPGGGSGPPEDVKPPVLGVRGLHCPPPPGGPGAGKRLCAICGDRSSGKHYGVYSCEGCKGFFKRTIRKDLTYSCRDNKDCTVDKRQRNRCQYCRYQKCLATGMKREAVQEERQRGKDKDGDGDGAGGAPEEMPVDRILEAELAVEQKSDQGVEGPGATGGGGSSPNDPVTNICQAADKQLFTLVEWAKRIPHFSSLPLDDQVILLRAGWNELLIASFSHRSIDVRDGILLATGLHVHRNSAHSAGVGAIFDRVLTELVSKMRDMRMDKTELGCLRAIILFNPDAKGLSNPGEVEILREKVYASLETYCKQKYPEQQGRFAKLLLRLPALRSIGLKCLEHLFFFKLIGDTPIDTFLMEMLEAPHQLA", "assay": "co-transfection (cis-trans) assay in CV-1 cells, RXRβ", "type": "cell-based", "conditions": "CV-1, read-out: Efficacy RXRβ", "from_the_text": "The co-transfection assay provides a mechanism to evaluate the ability of a compound to modulate the transcription response initiated by an intracellular receptor. […] Berger et al., J. Steroid Biochem. Molec.\nBriefly, the co-transfection assay involves the introduction of two plasmids by transient transfection into a retinoid receptor-negative mammalian cell background. The first plasmid contains a retinoid receptor cDNA and directs constitutive expression of the encoded receptor. The second plasmid contains a cDNA that encodes for a readily quantifiable protein, e.g., firefly luciferase or chloramphenicol acetyl transferase (CAT), under control of a promoter containing a retinoid acid response element, which confers retinoid dependence on the transcription of the reporter. In this co-transfection assay, all retinoid receptors respond to all-trans-retinoic acid in a similar fashion. This assay can be used to accurately measure efficacy and potency of retinoic acid and synthetic retinoids as ligands that interact with the individual retinoid receptor subtypes.\nAccordingly, synthetic retinoid compounds of the current invention were evaluated for their interaction with retinoid receptor subtypes using the co-transfection assay in which CV-1 cells were co-transfected with one of the retinoid receptor subtypes, a reporter construct, and an internal control to allow normalization of the response for transfection efficiency. The following example is illustrative.\nRetinoids: All-trans-retinoic acid (RA) and 13-cis-retinoic acid (13-cis-RA) were obtained from Sigma. […] Retinoids were dissolved in dimethylsulfoxide for use in the transcriptional activation assays.\nCo-transfection Assay In CV-1 Cells: A monkey kidney cell line, CV-1, was used in the cis-trans assay. Cells were transfected with two plasmids. […] The cis-vector contains an easily assayable gene product, in this case the firefly luciferase, coupled to a retinoid-responsive promoter, i.e., an RARE or RXRE. Addition of retinoic acid or an appropriate synthetic retinoid results in the formation of a retinoid-RAR or -RXR complex that activates the expression of luciferase gene, causing light to be emitted from cell extracts. The level of luciferase activity is directly proportional to the effectiveness of the retinoid-receptor complex in activating gene expression. This sensitive and reproducible co-transfection approach permits the identification of retinoids that interact with the different receptor isoforms.\nCells were cultured in DMEM supplemented with 10% charcoal resin-stripped fetal bovine serum, and experiments were conducted in 96-well plates. […] Cells were transfected for 6 h and then washed to remove the precipitate. The cells were then incubated for 36 h with or without retinoid. After the transfection, all subsequent steps were performed on a Beckman Biomek Automated Workstation. […] All determinations were performed in triplicate in two independent experiments and were normalized for transfection efficiency by using β-galactosidase as the internal control. […] Efficacy values less than 5% are not statistically different than the 0% background."}, "[1]": {"tested_on": "RPMI18226, a multiple myeloma", "assay": "growth of RPMI18226 tumor cells (cell number, semi-solid medium)", "type": "cell-based, human", "conditions": "cell number and growth in semi-solid medium", "from_the_text": "(§1) The effects on growth of these cells were monitored by evaluation of cell number, and also by evaluation of growth in semi-solid medium for the RPMI18226 cell line. […] The therapeutic index is defined as the ratio of efficacy to toxicity of a compound."}, "[2]": {"tested_on": "ME180, a squamous cell carcinoma", "assay": "growth of ME180 tumor cells (cell number)", "type": "cell-based, human", "from_the_text": "as §1"}, "[3]": {"conditions": "rats", "description": "Male Sprague-Dawley rats (160-200 gram) were obtained from Harlan. Animals were fed standard laboratory diets (Harlan/Teklad) and kept in an environmentally controlled animal house with a light period lasting from 6 a.m. to 6 p.m. Animals were treated with drugs prepared as suspensions in olive oil.\nPlasma was separated and stored at 4° C. for evaluation of plasma total cholesterol and high density lipoprotein cholesterol (HDL-cholesterol).\nPlasma total cholesterol was measured enzymatically utilizing Boeringer Mannheim Diagnostics High Performance Cholesterol Methods with an ABBOTT VP Bichromatic Analyzer. HDL cholesterol was measured after preparation of the HDL-containing fraction by heparin-manganese precipitation of plasma. HDL-cholesterol in this fraction was estimated as mentioned earlier. All HDL separations were checked for contamination by other lipoproteins with agarose gel electrophoresis.\nSerum samples were taken and analyzed by Western Blot using antisera specific to rat apoA1."}, "RAR": {"tested_on": "RAR", "assay": "apoA1 \"A\" site reporter co-transfection in HepG-2 cells with RAR", "type": "cell-based", "from_the_text": "(§2) This work focused on studying the transcriptional properties of the retinoid receptors RAR and RXR on a reporter molecule (e.g., luciferase) under control of a basal promoter containing the RXR response element from the apoA1 gene (\"A\" site). Plasmid constructs coding for the various receptors were transfected into a human hepatocyte cell line (HepG-2) along with the reporter plasmid. […] Widom et al., Mol. Cell. […] After transfection, treatment, harvest, and assay, the data obtained was normalized to transfected beta-galactosidase activity so as to control for transfection efficiency."}, "RXR": {"tested_on": "RXR", "assay": "apoA1 \"A\" site reporter co-transfection in HepG-2 cells with RXR", "type": "cell-based", "from_the_text": "as §2"}, "Rhino mice": {"tested_on": "Rhino mice", "assay": "comedolytic test on Rhino mice", "type": "in vivo"}, "[4]": {"tested_on": "myeloma cell line (RPMI 8226)", "assay": "thymidine incorporation assay in myeloma cell line RPMI 8226", "type": "cell-based", "conditions": "RPMI 8226 myeloma cells, FIG. 11", "from_the_text": "This assay examines the incorporation of radiolabeled thymidine into DNA, and by determining the ability of a compound to inhibit thymidine incorporation into DNA, provides a measure of cell proliferation."}},
  "data": [
    {"molecule": "CC(C)(Oc1ccc(Cl)cc1)C(=O)O", "note": "[clofibric Acid, clofibric acid]", "values": [
      {"measurement": "Emax", "setting": "RXRα/PPAR", "result": 100, "unit": "%"}
    ]},
    {"molecule": "CC1=C(/C=C/C(C)=C/C=C/C(C)=C/C(=O)O)C(C)(C)CCC1", "note": "[all-trans-retinoic acid, All-trans-retinoic acid]", "values": [
      {"measurement": "cellular proliferation (thymidine incorporation)", "setting": "HL60", "result": "inhibits thymidine incorporation"}
    ]},
    {"molecule": "CC1=C(/C=C/C(C)=C\\C=C\\C(C)=C\\C(=O)O)C(C)(C)CCC1", "note": "[9-cis-retinoic acid, reference compound]", "values": [
      {"measurement": "Emax", "setting": "RXRβ", "result": 140, "unit": "%"}
    ]},
    {"molecule": "C=C(c1ccc(C(=O)O)cc1)c1cc2c(cc1C)C(C)(C)CCC2(C)C", "note": "[3-methyl-TTNEB, 4-[1-(3,5,5,8,8-pentamethyl-5,6,7,8-tetrahydro-2-naphthyl)ethenyl]benzoic acid]", "values": [
      {"measurement": "cell growth", "setting": "[1]", "result": "inhibit cell growth in a concentration-dependent manner"},
      {"measurement": "cell growth", "setting": "[2]", "result": "inhibit cell growth in a concentration-dependent manner"},
      {"measurement": "total cholesterol", "setting": "[3]; 4 days", "result": "an increase due to the increase of the HDL-cholesterol fraction"},
      {"measurement": "plasma HDL-cholesterol at the lowest dose", "setting": "[3]; 4 days, 0.3 mg/kg i.p.", "result": "significant increases"},
      {"measurement": "circulating apoA1 levels", "setting": "[3]; orally 3 mg/kg daily for four days, Western Blot of serum", "result": "significant increase in circulating apoA1 levels"}
    ]},
    {"molecule": "Cc1cc2c(cc1C(=O)c1ccc(C(=O)O)cc1)C(C)(C)CCC2(C)C", "note": "[3-methyl-TTNCB, 4-[(3,5,5,8,8-pentamethyl-5,6,7,8-tetrahydro-2-naphthyl)carbonyl]benzoic acid]", "values": [
      {"measurement": "effect on apoA1 \"A\" site reporter with RAR", "setting": "RAR", "result": "no effect"},
      {"measurement": "activation of apoA1 \"A\" site reporter with RXR", "setting": "RXR", "result": "activation in the system"},
      {"measurement": "inhibition of utriculi diameter", "setting": "Rhino mice; 0.1% solution, topical, Rhino mice, FIG. 9", "result": "approximately 50%"},
      {"measurement": "irritation to the skin of Rhino mice", "setting": "Rhino mice; compared with 9-cis- or all-trans-retinoic acid", "result": "less irritating to the skin of Rhino mice than 9-cis- or all-trans-retinoic acid"}
    ]},
    {"molecule": "C/C(=C\\c1ccc(C(=O)O)cc1)c1ccc2c(c1)C(C)(C)CCC2(C)C", "note": "[TTNPB]", "values": [
      {"measurement": "concentrations providing essentially no effect on cell proliferation", "setting": "[4]", "result": "less than 10^-11 M"}
    ]}
  ]
}
